Here are results for 28 compounds from ChEMBL document CHEMBL5120775, “Boosting the Discovery of Small Molecule Inhibitors of Glucose-6-Phosphate Dehydrogenase for the Treatment of Cancer, Infectious Diseases, and Inflammation” (J Med Chem, 2022).

Where only a bound is given, the exact number is not on record here.

Assay [1] can be described thus: Inhibition of Plasmodium falciparum recombinant GluPho measured for 20 to 30 mins by multiwell plate reader method.
Assay [2] is described as follows: Binding affinity to Plasmodium falciparum GluPho.
A short description of assay [3]: Selectivity index, ratio of Ki for human G6PD to Ki for Plasmodium falciparum GluPho.
The test system of a further assay is Plasmodium falciparum. The experiment in a line: Antimalarial activity against Plasmodium falciparum 3D7 incubated for 48 hrs followed by [3H]-hypoxanthine addition measured after 24 hrs by microdilution method. It counts as functional, organism-based.
Assay [4] in a line: Inhibition of Plasmodium falciparum GluPho.
Assay [5] addresses T1, Glucose-6-phosphate 1-dehydrogenase (Homo sapiens, UniProt P11413). The experiment in a line: Inhibition of human C-terminal His tagged G6PD overexpressed in Escherichia coli BL21.
Assay [6] in a line: Inhibition of Trypanosoma cruzi G6PD.
Assay [7] addresses T1, Glucose-6-phosphate 1-dehydrogenase. In words: Inhibition of human G6PD.
Assay [8] is described as follows: Inhibition of Trypanosoma cruzi G6PD expressed in Escherichia coli BL21 (DE3) by G6PDH-diaphorase-resorufin coupled assay.
Assay [9] deals with T1, Glucose-6-phosphate 1-dehydrogenase. The experiment in a line: Binding affinity to human G6PD.
Assay [10] has the same target. In words: Binding affinity to G6PD (unknown origin) assessed as Gibbs free energy.
The nature of assay [11]: Inhibition of Plasmodium vivax G6PD.
The test system of the next assay is Trypanosoma cruzi. The experiment in a line: Trypanocidal activity against Trypanosoma cruzi assessed as lethal dose. Format: functional. As to conditions: read-out: LD50 (the source's name).
Assay [12] can be described thus: Antiproliferative activity against human MCF10AT1 cells. Format: functional, cell-based.

T1 sequence (P11413 whole entry): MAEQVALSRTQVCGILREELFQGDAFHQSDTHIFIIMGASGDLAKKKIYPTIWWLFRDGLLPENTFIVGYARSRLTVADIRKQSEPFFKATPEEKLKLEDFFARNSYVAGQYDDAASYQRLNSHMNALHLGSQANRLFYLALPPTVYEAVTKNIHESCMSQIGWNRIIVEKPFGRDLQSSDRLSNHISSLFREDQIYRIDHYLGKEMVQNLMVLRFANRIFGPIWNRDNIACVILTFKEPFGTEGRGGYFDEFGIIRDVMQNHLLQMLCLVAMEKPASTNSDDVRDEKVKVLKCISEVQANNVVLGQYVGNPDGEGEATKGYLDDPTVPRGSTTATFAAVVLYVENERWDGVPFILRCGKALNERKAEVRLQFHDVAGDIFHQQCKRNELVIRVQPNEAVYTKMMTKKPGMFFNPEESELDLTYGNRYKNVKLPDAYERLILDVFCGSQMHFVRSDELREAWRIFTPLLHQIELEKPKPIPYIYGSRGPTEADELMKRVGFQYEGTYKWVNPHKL

With `Cc1cccc(N2C(=O)NC(=O)/C(=C/c3ccc(-c4ccc([N+](=O)[O-])cc4C)o3)C2=O)c1`, the half-maximal inhibitory concentration (IC50) in assay [1] is 5.1 µM.

In [2], `CO[C@H]1O[C@H](CSCCC#N)[C@@H](O)[C@H](O)[C@H]1O` displayed a Ki of 259 µM. Besides, the Ratio Ki in [3] was over 0.8.

In the case of `O=S(=O)(Nc1ccc(O)c2ccccc12)c1ccc(F)cc1`, the IC50 in [1] is 30 µM; in the assay with Plasmodium falciparum it was 3.9 µM.

In assay [2], `CO[C@H]1O[C@H](CSCCCN)[C@@H](O)[C@H](O)[C@H]1O` displayed a Ki of 289 µM. For the same compound, in [3], the Ratio Ki is 0.4.

Turning to `CCN1CCC[C@@H]1CNC(=O)c1ccc2c(c1)NC(=O)/C(=C/c1ccccc1F)S2`, 2.3 µM corresponded to half-maximal inhibition in the assay on Plasmodium falciparum (IC50).

On to `CO[C@H]1O[C@H](CSCCN)[C@@H](O)[C@H](O)[C@H]1O`, for which, in assay [3], the Ratio Ki is 26.

`CO[C@H]1O[C@H](CS(=O)(=O)CCCN)[C@@H](O)[C@H](O)[C@H]1O` had a Ki in assay [2] of 34.4 µM. Further, the Ratio Ki in assay [3] was determined as 1.

On to `COc1cc(/C=C2\C(=O)N(c3nc(-c4ccc(Cl)cc4)cs3)N=C2C)cc(OC)c1OC`, for which the IC50 in assay [4] came to 1.7 µM; in assay [5], 0.6 µM.

As to `CO[C@H]1O[C@H](CSCCNC(=N)N)[C@@H](O)[C@H](O)[C@H]1O`, affinity in assay [2] was put at a Ki of 45.6 µM. The Ratio Ki in [3] is over 4.4.

Consider `O=C1NC(=O)N(c2ccc(O)cc2)C(=O)/C1=C\c1ccc(-c2ccccc2[N+](=O)[O-])o1`, for which the IC50 in assay [1] stood at 19.9 µM.

In assay [6], `Cc1cccc(Nc2ncc3c(n2)CCCC3=O)c1` gave an IC50 of 0.63 µM.

In the case of `O=c1c2ccccc2nc(-c2cccnc2)n1-c1ccc(Br)cn1`, the IC50 came out at 4.5 µM in assay [1], 2.6 µM in assay [5] and 2.6 µM in [7].

For `COc1ccc(-c2ccc(C=C3C(=O)NC(=O)NC3=O)o2)c([N+](=O)[O-])c1`, the IC50 in [1] was determined as 4.6 µM.

In the case of `COc1ccc(N2CCN(c3nc(C)c4c(n3)CCCC4=O)CC2)cc1`, in assay [8], half-maximal inhibition (IC50) required 0.61 µM.

Take `COc1ccc(-n2c(-c3cccnc3)nc3ccccc3c2=O)cc1`: the IC50 came out at 7.6 µM in assay [1], 3 µM in assay [5] and 3 µM in assay [7].

Turning to `CO[C@H]1O[C@H](CS(=O)(=O)CCN)[C@@H](O)[C@H](O)[C@H]1O`, the Ki in assay [9] was over 400 µM; in assay [2] it was 22.8 µM. Also, the Ratio Ki in [3] is over 18.

Take `O=C(Nc1ccc(Cl)cc1)Nc1ncc([N+](=O)[O-])s1`: the deltaG in assay [10] is -6.91 kcal/mol.

Turning to `CO[C@H]1O[C@H](CS(=O)(=O)CCCNC(=N)N)[C@@H](O)[C@H](O)[C@H]1O`, the affinity in assay [2], expressed as Ki, was 42.9 µM. Further, the Ratio Ki in [3] stood at 0.5.

On to `O=C1Nc2ccc(Br)cc2/C1=C1/SC(=S)N(C(Cc2ccccc2)C(=O)O)C1=O` (stereo unspecified), for which the midpoint of inhibition in assay [5], the IC50, lay at 3.1 µM.

Take `O=C(Cn1ccnc1[N+](=O)[O-])NCc1ccccc1` [BENZNIDAZOLE]: the IC50 in [6] was determined as 8.5 µM.

For `CCN1CCC[C@@H]1CNC(=O)c1ccc2c(c1)NC(=O)c1cccc(C)c1S2`, the IC50 in [4] is 0.19 µM; in assay [11], 15.3 µM.

As to `C[C@]12CC[C@H](O)C[C@@H]1CC[C@@H]1[C@@H]2CC[C@]2(C)C(=O)[C@H](Br)C[C@@H]12` [16.ALPHA.-BROMOEPIANDROSTERONE], the IC50 in assay [6] was 0.086 µM. In addition, the LC50 with Trypanosoma cruzi worked out at 12 µM.

`CC(C)(C)c1ccc(Oc2ccc(N)cn2)cc1` [LIMANTRAFIN]: the results for the concentration for half-maximal inhibition (IC50) (in assay [1]; in the assay on Plasmodium falciparum) were 1.5 µM and 0.97 µM, respectively.

Consider `Cc1ccc(C)c(S(=O)(=O)Nc2ccc(O)c3ccccc23)c1`, for which the IC50 in [1] turned out to be 22 µM; in the assay on Plasmodium falciparum, 5.3 µM; in assay [5], 0.2 µM; in [12], 25 µM.

Take `CCCCCCCn1cnc2sc(C(N)=O)c(C)c2c1=O`: half-maximal inhibition in [8] (IC50) was put at 4.9 µM.

In the case of `Cc1ccc(Nc2ncc3c(n2)CCCC3=O)cc1`, the values for the IC50 in assay [6] and in assay [8] were 10 µM and 0.48 µM, respectively.

For the compound `CO[C@H]1O[C@H](CS(=O)(=O)CCNC(=N)N)[C@@H](O)[C@H](O)[C@H]1O`, the Ki in assay [9] came to 16.8 µM; in [2], 32.4 µM. For the same compound, the Ratio Ki in assay [3] was determined as 0.5.

For `CO[C@H]1O[C@H](CS(=O)(=O)CCC#N)[C@@H](O)[C@H](O)[C@H]1O`, the Ki in assay [2] stood at 68.8 µM. In addition, the Ratio Ki in assay [3] was over 2.9.

As a reminder, the IC50 is the midpoint of a concentration-inhibition curve. What is called Ki is the dissociation constant of the complex between target and ligand, obtained from inhibition or displacement. High values mean a looser hold on the target, low ones a stronger hold on the target.
